Converted amounts (≈) assume the structure as drawn. Where two headings read alike, the source gives them in different places. *1 amine or outer side, *2 acyl side, *3 side chain or, on linkers, in order; H or OH if unused. Where a SMILES comes first, the peptide text is derived from it. [ ]: non-standard residue; d: D form. The star is where a group is joined. X13 = C[C@H](CO[C@H](CC1CC2(CCC2)C1)[C@@H](C)C(=O)[*:2])N[*:1]; X19 = CCCC[C@@H](OC[C@@H](C)N[*:1])[C@@H](CC1CC1)C(=O)[*:2]; X1 = CCCCCC[C@@H](C(=O)[*:2])[C@@H](C)OC[C@@H](C)N[*:1]; X2 = CCCCCC[C@@H](OC[C@@H](C)N[*:1])[C@@H](C)C(=O)[*:2]; X9 = CCCCCC(C)[C@@H](OC[C@@H](C)N[*:1])C(C)C(=O)[*:2]; Cyclobutyl(trans-3-NH2) = N[C@H]1C[C@H](*)C1; Gly(cHept) = N[C@H](C(=O)O)C1CCCCCC1; aThr = C[C@H](O)[C@H](N)C(=O)O; NMeL = CN[C@@H](CC(C)C)C(=O)O; Chg = N[C@H](C(=O)O)C1CCCCC1; NMeNva = CCC[C@H](NC)C(=O)O; X8 = NC[C@H]1C[C@H](*)C1; Dap = NC[C@H](N)C(=O)O; Propyl(3-NH2) = NCCC*; X24 = NC[C@H](F)C*; X3 = NC[C@@H](F)C*; X22 = C1CC(*)CCN1; X10 = NCCCC*
Tested on: Escherichia coli (E. coli) strain CFT073 ATCC 700928
Type: cell-based
How it was run: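 MICs were read after 22 h at 35 °C, with bacteria added to a final OD600 of 0.0005. Compounds were serially diluted 2-fold over ten concentrations from a top of 64, 4, 0.5 or 0.13 μg/mL (protocols 1–4). Medium was cation-adjusted Mueller Hinton II broth plus 0.002% Tween-80, following CLSI M07-A8.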

[1] = E. coli CFT073 ATCC 700928, Mueller Hinton II cation adjusted Broth with 0.002% v/v Tween-80, 35° C. for 22 hours, lowest concentration that completely prevented bacterial growth

| MIC (ATCC 700928, 22 h) [µM] | Compound | MIC [1] [µM] |
| --- | --- | --- |
| 6.3 (≈ 4.28 µg/mL) | CCCCCC[C@H]1OC[C@@H](C)NC(=O)[C@H](CN)NC(=O)[C@H](CN)NC(=O)[C@H](C2CCCCCC2)NC(=O)[C@H](CC(C)C)N(C)C(=O)[C@@H]1C [Example 151, (3R,6S,9S,12S,15S,18R,19R)-6,9-Bis(aminomethyl)-12-cycloheptyl-19-hexyl-15-isobutyl-3,16,18-trimethyl-1-oxa-4,7,10,13,16-pentazacyclononadecane-5,8,11,14,17-pentone] (cyclo([Dap][Dap][X2][NMeL][Gly(cHept)])) |  |
| 1.6 (≈ 1.11 µg/mL) | CCCCCC(C)[C@H]1OC[C@@H](C)NC(=O)[C@H]([C@H](C)O)NC(=O)[C@H](CN)NC(=O)[C@H](C2CCCCC2)NC(=O)[C@H](CC(C)C)N(C)C(=O)C1C (stereo partly drawn) [Example 153, (3R,6S,9S,12S,15S,18R,19R)-9-(Aminomethyl)-12-cyclohexyl-19-(heptan-2-yl)-6-((S)-1-hydroxyethyl)-15-isobutyl-3,16,18-trimethyl-1-oxa-4,7,10,13,16-pentaazacyclononadecane-5,8,11,14,17-pentaone] (cyclo([Chg][Dap][aThr][X9][NMeL])) |  |
| 2.2 (≈ 1.52 µg/mL) | CCC[C@H]1C(=O)N[C@@H](C2CCCCC2)C(=O)N[C@@H](CN)C(=O)N[C@@H]([C@H](C)O)C(=O)N[C@H](C)CO[C@H](CC2CC3(CCC3)C2)[C@@H](C)C(=O)N1C [Example 156, (3R,6S,9S,12S,15S,18R,19R)-9-(Aminomethyl)-12-cyclohexyl-6-((S)-1-hydroxyethyl)-3,16,18-trimethyl-15-propyl-19-(spiro[3.3]heptan-2-ylmethyl)-1-oxa-4,7,10,13,16-pcntaazacyclononadecane-5,8,11,14,17-pentaone] (cyclo([Chg][Dap][aThr][X13][NMeNva])) |  |
| 12 (≈ 8.81 µg/mL) | CCC[C@H]1C(=O)N[C@@H](C2CCCCC2)C(=O)N[C@@H](CN)C(=O)N[C@@H](COCCCN)C(=O)N[C@H](C)CO[C@H](CC2CC3(CCC3)C2)[C@@H](C)C(=O)N1C [Example 157, (3R,6S,9S,12S,15S,18R,19R)-9-(Aminomethyl)-6-((3-aminopropoxy)methyl)-12-cyclohexyl-3,16,18-trimethyl-15-propyl-19-(spiro[3.3]heptan-2-ylmethyl)-1-oxa-4,7,10,13,16-pentaazacyclononadecane-5,8,11,14,17-pentaone] (cyclo([Chg][Dap]S(Propyl(3-NH2))[X13][NMeNva])) |  |
| 3.1 (≈ 2.32 µg/mL) | CCC[C@H]1C(=O)N[C@@H](C2CCCCCC2)C(=O)N[C@@H](CN)C(=O)N[C@@H](COCCCN)C(=O)N[C@H](C)CO[C@H](CC2CC3(CCC3)C2)[C@@H](C)C(=O)N1C [Example 159, (3R,6S,9S,12S,15S,18R,19R)-9-(Aminomethyl)-6-((3-aminopropoxy)methyl)-12-cycloheptyl-3,16,18-trimethyl-15-propyl-19-(spiro[3.3]heptan-2-ylmethyl)-1-oxa-4,7,10,13,16-pentaazacyclononadecane-5,8,11,14,17-pentaone] (cyclo([Dap]S(Propyl(3-NH2))[X13][NMeNva][Gly(cHept)])) |  |
| 6.3 (≈ 4.56 µg/mL) | CCCCCC[C@H]1OC[C@@H](C)NC(=O)[C@H](CNCCN)NC(=O)[C@H](CN)NC(=O)[C@H](C2CCCCCC2)NC(=O)[C@H](CC(C)C)N(C)C(=O)[C@@H]1C [Example 161, (3R,6S,9S,12S,15S,18R,19R)-6-[(2-Aminoethylamino)methyl]-9-(aminomethyl)-12-cycloheptyl-19-hexyl-15-isobutyl-3,16,18-trimethyl-1-oxa-4,7,10,13,16-pentazacyclononadecane-5,8,11,14,17-pentone] |  |
| 3.1 (≈ 2.14 µg/mL) | CCCCCC[C@H]1OC(=O)CNC(=O)[C@H](C2CCC2)NC(=O)[C@H](CN)NC(=O)[C@H](C2CCCCC2)NC(=O)[C@H](CC(C)C)N(C)C(=O)[C@@H]1C [Example 162, (6S,9S,12S,15S,18R,19R)-9-(Aminomethyl)-6-cyclobutyl-12-cyclohexyl-19-hexyl-15-isobutyl-16,18-dimethyl-1-oxa-4,7,10,13,16-pentaazacyclononadecane-2,5,8,11,14,17-hexaone] |  |
| 4.4 (≈ 3.41 µg/mL) | CCC[C@H]1C(=O)N[C@@H](C2CCCCCC2)C(=O)N[C@@H](CN)C(=O)N[C@@H](COC2CCNCC2)C(=O)N[C@H](C)CO[C@H](CC2CC3(CCC3)C2)[C@@H](C)C(=O)N1C [Example 163, (3R,6S,9S,12S,15S,18R,19R)-9-(Aminomethyl)-12-cycloheptyl-3,16,18-trimethyl-6-((piperidin-4-yloxy)methyl)-15-propyl-19-(spiro[3.3]heptan-2-ylmethyl)-1-oxa-4,7,10,13,16-pentaazacyclononadecane-5,8,11,14,17-pentaone] (cyclo([Dap]S(X22)[X13][NMeNva][Gly(cHept)])) |  |
| 1.6 (≈ 1.24 µg/mL) | CCCCCC[C@H]1OC[C@@H](C)NC(=O)[C@H](COc2cccc(CN)c2)NC(=O)[C@H](CN)NC(=O)[C@H](C2CCCCC2)NC(=O)[C@H](CC(C)C)N(C)C(=O)[C@@H]1C [Example 167, (3R,6S,9S,12S,15S,18R,19R)-9-(Aminomethyl)-6-((3-(aminomethyl)phenoxy)methyl)-12-cyclohexyl-19-hexyl-15-isobutyl-3,16,18-trimethyl-1-oxa-4,7,10,13,16-pentaazacyclononadecane-5,8,11,14,17-pentaone] |  |

Further lines, the compound ahead of its results:

| Compound | MIC (ATCC 700928, 22 h) [µM] | MIC [1] [µM] |
| --- | --- | --- |
| CCCC[C@H]1OC[C@@H](C)NC(=O)[C@H]([C@H](C)O)NC(=O)[C@H](CN)NC(=O)[C@H](C2CCCCC2)NC(=O)[C@H](CCC)N(C)C(=O)[C@@H]1CC1CC1 [Example 147, (3R,6S,9S,12S,15S,18R,19R)-9-(Aminomethyl)-19-butyl-12-cyclohexyl-18-(cyclopropylmethyl)-6-((S)-1-hydroxyethyl)-3,16-dimethyl-15-propyl-1-oxa-4,7,10,13,16-pentaazacyclononadecane-5,8,11,14,17-pentaone] (cyclo([Chg][Dap][aThr][X19][NMeNva])) | 12 (≈ 8.15 µg/mL) |  |
| CCCCCC[C@H]1OC[C@@H](C)NC(=O)[C@H]([C@H](C)O)NC(=O)[C@H](CN)NC(=O)[C@H](C2CCN(c3ccccc3)CC2)NC(=O)[C@H](CC(C)C)N(C)C(=O)[C@@H]1C [Example 148, (3R,6S,9S,12S,15S,18R,19R)-9-(Aminomethyl)-19-hexyl-6-((S)-1-hydroxyethyl)-15-isobutyl-3,16,18-trimethyl-12-(1-phenylpiperidin-4-yl)-1-oxa-4,7,10,13,16-pentaazacyclononadecane-5,8,11,14,17-pentaone] | 8.8 (≈ 6.67 µg/mL) |  |
| CCCCCC[C@H]1OC[C@@H](C)NC(=O)[C@H](CO[C@H]2C[C@H](CN)C2)NC(=O)[C@H](CN)NC(=O)[C@H](C2CCCCC2)NC(=O)[C@H](CC(C)C)N(C)C(=O)[C@@H]1C [Example 149, (3R,6S,9S,12S,15S,18R,19R)-9-(Aminomethyl)-6-(((1r,3,S)-3-(aminomethyl)cyclobutoxy)methyl)-12-cyclohexyl-19-hexyl-15-isobutyl-3,16,18-trimethyl-1-oxa-4,7,10,13,16-pentaazacyclononadecane-5,8,11,14,17-pentaone] (cyclo([Chg][Dap]S(X8)[X2][NMeL])) | 8.8 (≈ 6.6 µg/mL) |  |
| CCCCCC[C@H]1C(=O)N(C)[C@@H](CCC)C(=O)N[C@@H](C2CCCCC2)C(=O)N[C@@H](CN)C(=O)N[C@@H]([C@H](C)O)C(=O)N[C@H](C)CO[C@@H]1C [Example 150, (3R,6S,9S,12S,15S,18R,19R)-9-(Aminomethyl)-12-cyclohexyl-18-hexyl-6-((S)-1-hydroxyethyl)-3,16,19-trimethyl-15-propyl-1-oxa-4,7,10,13,16-pentaazacyclononadecane-5,8,11,14,17-pentaone] (cyclo([Chg][Dap][aThr][X1][NMeNva])) | 25 (≈ 16.7 µg/mL) |  |
| CCCCCC[C@H]1OC[C@@H](C)NC(=O)[C@H](COCCCCN)NC(=O)[C@H](CN)NC(=O)[C@H](C2CCCCCC2)NC(=O)[C@H](CCC)N(C)C(=O)[C@@H]1C [Example 152, (3R,6S,9S,12S,15S,18R,19R)-6-((4-Aminobutoxy)methyl)-9-(aminomethyl)-12-cycloheptyl-19-hexyl-3,16,18-trimethyl-15-propyl-1-oxa-4,7,10,13,16-pentaazacyclononadecane-5,8,11,14,17-pentaone] (cyclo([Dap]S(X10)[X2][NMeNva][Gly(cHept)])) | 6.3 (≈ 4.65 µg/mL) |  |
| CCCCCC[C@H]1OC[C@@H](C)NC(=O)[C@H](COC[C@H](F)CN)NC(=O)[C@H](CN)NC(=O)[C@H](C2CCCCC2)NC(=O)[C@H](CC(C)C)N(C)C(=O)[C@@H]1C [Example 154, (3R,6S,9S,12S,15S,18R,19R)-6-(((R)-3-Amino-2-fluoropropoxy)methyl)-9-(aminomethyl)-12-cyclohexyl-19-hexyl-15-isobutyl-3,16,18-trimethyl-1-oxa-4,7,10,13,16-pentaazacyclononadecane-5,8,11,14,17-pentaone] (cyclo([Chg][Dap]S(X3)[X2][NMeL])) |  | 12 (≈ 8.9 µg/mL) |
| CCCCCC[C@H]1OC[C@@H](C)NC(=O)[C@H](COC[C@@H](F)CN)NC(=O)[C@H](CN)NC(=O)[C@H](C2CCCCC2)NC(=O)[C@H](CC(C)C)N(C)C(=O)[C@@H]1C [Example 158, (3R,6S,9S,12S,15S,18R,19R)-6-(((S)-3-Amino-2-fluoropropoxy)methyl)-9-(aminomethyl)-12-cyclohexyl-19-hexyl-15-isobutyl-3,16,18-trimethyl-1-oxa-4,7,10,13,16-pentaazacyclononadecane-5,8,11,14,17-pentaone] (cyclo([Chg][Dap]S(X24)[X2][NMeL])) |  | 12 (≈ 8.9 µg/mL) |
| CCC[C@H]1C(=O)N[C@@H](C2CCCCCC2)C(=O)N[C@@H](CN)C(=O)N[C@@H](CO[C@H]2C[C@H](N)C2)C(=O)N[C@H](C)CO[C@H](CC2CC3(CCC3)C2)[C@@H](C)C(=O)N1C [Example 164, (3R,6S,9S,12S,15S,18R,19R)-6-(((1r,3S)-3-Aminocyclobutoxy)methyl)-9-(aminomethyl)-12-cycloheptyl-3,16,18-trimethyl-15-propyl-19-(spiro[3.3]heptan-2-ylmethyl)-1-oxa-4,7,10,13,16-pentaazacyclononadecane-5,8,11,14,17-pentaone] (cyclo([Dap]S(Cyclobutyl(trans-3-NH2))[X13][NMeNva][Gly(cHept)])) | 2.2 (≈ 1.67 µg/mL) |  |
